# ChEMBL document CHEMBL1201861, “Genomics of Drug Sensitity in Cancer screening data, Wellcome Trust Sanger Institute”
# Assays:
# Experiment in all cases: cells
# Format in all cases: functional, cell-based, Homo sapiens
# [1] = tested on: COLO-741
# Description: SANGER: Inhibition of human COLO-741 cell growth in a cell viability assay.
# [2] = tested on: Ca-Ski;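 also: cell viability assay measuring inhibition of Ca-Ski cell growth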
# Description: SANGER: Inhibition of human Ca-Ski cell growth in a cell viability assay.
# [3] = tested on: Detroit 562;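 also: growth inhibition of human Detroit 562 cells, read out by a cell viability assay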
# Description: SANGER: Inhibition of human Detroit562 cell growth in a cell viability assay.
# [4] = tested on: DoTc2-4510
# [5] = tested on: G-361
# [6] = tested on: GAMG;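 also: cell growth inhibition measured by a viability assay in the GAMG human cell line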
# Description: SANGER: Inhibition of human GAMG cell growth in a cell viability assay.
# [7] = tested on: HCC70;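 also: cell viability assay measuring how strongly the compound suppresses proliferation of HCC70 cells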
# Description: SANGER: Inhibition of human HCC70 cell growth in a cell viability assay.
# [8] = tested on: HCT-15;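 also: cell viability readout, IC50 reflecting suppression of HCT-15 cell growth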
# Description: SANGER: Inhibition of human HCT-15 cell growth in a cell viability assay.
# [9] = tested on: HPAF-II;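 also: growth inhibition of HPAF-II cells, read out with a cell viability assay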
# Description: SANGER: Inhibition of human HPAF-II cell growth in a cell viability assay.
# [10] = tested on: HSC-2;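 also: growth inhibition of human HSC-2 cells, read out by a cell viability assay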
# Description: SANGER: Inhibition of human HSC-2 cell growth in a cell viability assay.
# [11] = tested on: KYSE-140;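 also: cell viability assay measuring growth inhibition in human KYSE-140 cells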
# Description: SANGER: Inhibition of human KYSE-140 cell growth in a cell viability assay.
# [12] = tested on: LN-405
# Description: SANGER: Inhibition of human LN-405 cell growth in a cell viability assay.
# [13] = tested on: MDA-MB-415
# [14] = tested on: MFE-280;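 also: growth inhibition of MFE-280 cells, determined with a cell viability readout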
# Description: SANGER: Inhibition of human MFE-280 cell growth in a cell viability assay.
# [15] = tested on: MIA PaCa-2;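 also: growth inhibition of MIA PaCa-2 cells, read out with a cell viability assay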
# Description: SANGER: Inhibition of human MIA-PaCa-2 cell growth in a cell viability assay.
# [16] = tested on: MeWo;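 also: growth inhibition of MeWo cells, determined by a cell viability readout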
# Description: SANGER: Inhibition of human Mewo cell growth in a cell viability assay.
# [17] = tested on: NCI-H2170;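 also: cell viability assay measuring growth inhibition of human NCI-H2170 cancer cells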
# Description: SANGER: Inhibition of human NCI-H2170 cell growth in a cell viability assay.
# [18] = tested on: NCI-H2228;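 also: growth inhibition of human NCI-H2228 cells, read out by a cell viability assay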
# Description: SANGER: Inhibition of human NCI-H2228 cell growth in a cell viability assay.
# [19] = tested on: NCI-H520;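 also: growth inhibition of NCI-H520 cells, measured by a cell viability assay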
# Description: SANGER: Inhibition of human NCI-H520 cell growth in a cell viability assay.
# [20] = tested on: NCI-H596;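 also: growth inhibition of NCI-H596 cells, read out with a cell viability assay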
# Description: SANGER: Inhibition of human NCI-H596 cell growth in a cell viability assay.
# [21] = tested on: NCI-H650;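 also: growth inhibition of NCI-H650 cells, read out by a viability assay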
# Description: SANGER: Inhibition of human NCI-H650 cell growth in a cell viability assay.
# [22] = tested on: SK-MEL-28;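 also: growth inhibition of human SK-MEL-28 cells, read out with a cell viability assay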
# Description: SANGER: Inhibition of human SK-MEL-28 cell growth in a cell viability assay.
# [23] = tested on: SK-MES-1;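 also: growth inhibition of human SK-MES-1 cells, read out with a cell viability assay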
# Description: SANGER: Inhibition of human SK-MES-1 cell growth in a cell viability assay.
# [24] = tested on: SW1573;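 also: growth inhibition of SW1573 cells, read out with a cell viability assay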
# Description: SANGER: Inhibition of human SW1573 cell growth in a cell viability assay.
# [25] = tested on: SW1783;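 also: cell growth inhibition measured with a viability assay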
# Description: SANGER: Inhibition of human SW1783 cell growth in a cell viability assay.
# [26] = tested on: SW626;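 also: growth inhibition of SW626 cells, measured with a cell viability assay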
# Description: SANGER: Inhibition of human SW626 cell growth in a cell viability assay.
# [27] = tested on: T84;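 also: growth inhibition measured with a cell viability readout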
# Description: SANGER: Inhibition of human T84 cell growth in a cell viability assay.
# [28] = tested on: 647-V;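 also: growth inhibition of 647-V cells, read out with a cell viability assay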
# Description: SANGER: Inhibition of human 647-V cell growth in a cell viability assay.
# [29] = tested on: 786-0
# Description: SANGER: Inhibition of human 786-0 cell growth in a cell viability assay.
# [30] = tested on: 8305C
# Description: SANGER: Inhibition of human 8305C cell growth in a cell viability assay.
# [31] = tested on: A549;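 also: growth inhibition of A549 cells, read out with a cell viability assay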
# Description: SANGER: Inhibition of human A549 cell growth in a cell viability assay.
# [32] = tested on: TYK-nu;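 also: growth inhibition of human TYK-nu cells, read out by a cell viability assay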
# Description: SANGER: Inhibition of human TYK-nu cell growth in a cell viability assay.
# [33] = tested on: UMC-11;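 also: growth inhibition of UMC-11 cells, read out with a cell viability assay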
# Description: SANGER: Inhibition of human UMC-11 cell growth in a cell viability assay.
# [34] = tested on: VMRC-RCZ;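 also: growth inhibition measured with a cell viability assay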
# Description: SANGER: Inhibition of human VMRC-RCZ cell growth in a cell viability assay.
# [35] = tested on: WM-115
# Description: SANGER: Inhibition of human WM-115 cell growth in a cell viability assay.
# [36] = tested on: CAPAN-1;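 also: growth suppression of CAPAN-1 cells, read out by a cell viability assay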
# Description: SANGER: Inhibition of human CAPAN-1 cell growth in a cell viability assay.
# [37] = tested on: CHL-1;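 also: cell growth inhibition, read out with a cell viability assay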
# Description: SANGER: Inhibition of human CHL-1 cell growth in a cell viability assay.
# [38] = tested on: COLO-679
# Description: SANGER: Inhibition of human COLO-679 cell growth in a cell viability assay.
compound,measurement,setting,value
CS(=O)(=O)c1ccc(C(=O)Nc2ccc(Cl)c(-c3ccccn3)c2)c(Cl)c1 [VISMODEGIB],IC50,"[1]; Homo sapiens, COLO-741",> 10 µM
same,IC50,"[2]; Homo sapiens, Ca-Ski",> 10 µM
same,IC50,"[3]; Homo sapiens, Detroit 562",> 10 µM
same,IC50,"[4]; Homo sapiens, DoTc2-4510",> 10 µM
same,IC50,"[5]; Homo sapiens, G-361",> 10 µM
same,IC50,"[6]; Homo sapiens, GAMG",> 10 µM
same,IC50,"[7]; Homo sapiens, HCC70",> 10 µM
same,IC50,"[8]; Homo sapiens, HCT-15",> 10 µM
same,IC50,"[9]; Homo sapiens, HPAF-II",> 10 µM
same,IC50,"[10]; Homo sapiens, HSC-2",> 10 µM
same,IC50,"[11]; Homo sapiens, KYSE-140",> 10 µM
same,IC50,"[12]; Homo sapiens, LN-405",> 10 µM
same,IC50,"[13]; Homo sapiens, MDA-MB-415",> 10 µM
same,IC50,"[14]; Homo sapiens, MFE-280",> 10 µM
same,IC50,"[15]; Homo sapiens, MIA PaCa-2",> 10 µM
same,IC50,"[16]; Homo sapiens, MeWo",> 10 µM
same,IC50,"[17]; Homo sapiens, NCI-H2170",> 10 µM
same,IC50,"[18]; Homo sapiens, NCI-H2228",> 10 µM
same,IC50,"[19]; Homo sapiens, NCI-H520",> 10 µM
same,IC50,"[20]; Homo sapiens, NCI-H596",> 10 µM
same,IC50,"[21]; Homo sapiens, NCI-H650",> 10 µM
same,IC50,"[22]; Homo sapiens, SK-MEL-28",> 10 µM
same,IC50,"[23]; Homo sapiens, SK-MES-1",> 10 µM
same,IC50,"[24]; Homo sapiens, SW1573",> 10 µM
same,IC50,"[25]; Homo sapiens, SW1783",> 10 µM
same,IC50,"[26]; Homo sapiens, SW626",> 10 µM
same,IC50,"[27]; Homo sapiens, T84",> 10 µM
same,IC50,"[28]; Homo sapiens, 647-V",> 10 µM
same,IC50,[29]; Homo sapiens,> 10 µM
same,IC50,"[30]; Homo sapiens, 8305C",> 10 µM
same,IC50,"[31]; Homo sapiens, A549",> 10 µM
same,IC50,"[32]; Homo sapiens, TYK-nu",> 10 µM
same,IC50,"[33]; Homo sapiens, UMC-11",> 10 µM
same,IC50,"[34]; Homo sapiens, VMRC-RCZ",> 10 µM
same,IC50,"[35]; Homo sapiens, WM-115",> 10 µM
same,IC50,"[36]; Homo sapiens, CAPAN-1",> 10 µM
same,IC50,"[37]; Homo sapiens, CHL-1",> 10 µM
same,IC50,"[38]; Homo sapiens, COLO-679",> 10 µM
CISPLATIN,IC50,[1]; colo-741,28.7 µM
same,IC50,[2]; ca-ski,10.3 µM
same,IC50,[3]; detroit 562,38.3 µM
same,IC50,[4]; dotc2-4510,63.6 µM
same,IC50,[5]; g-361,672 µM
same,IC50,[6]; gamg,289 µM
same,IC50,[7]; hcc70,9.92 µM
same,IC50,[8]; hct-15,267 µM
same,IC50,[9]; hpaf-ii,114 µM
same,IC50,[10]; hsc-2,129 µM
same,IC50,[11]; kyse-140,7.59 µM
same,IC50,[12]; ln-405,15.5 µM
same,IC50,[13]; mda-mb-415,48.4 µM
same,IC50,[14]; mfe-280,626 µM
same,IC50,[15]; mia paca-2,5.35 µM
same,IC50,[16]; mewo,16.7 µM
same,IC50,[17]; nci-h2170,23 µM
same,IC50,[18]; nci-h2228,8.25 µM
same,IC50,[19]; nci-h520,72.8 µM
same,IC50,[20]; nci-h596,305 µM
same,IC50,[21]; nci-h650,29.9 µM
same,IC50,[22]; sk-mel-28,22.2 µM
same,IC50,[23]; sk-mes-1,129 µM
same,IC50,[24]; sw1573,43.3 µM
same,IC50,[25]; sw1783,23.3 µM
same,IC50,[26]; sw626,33.1 µM
same,IC50,[27]; t84,356 µM
same,IC50,[28]; 647-v,114 µM
same,IC50,[29],4.47 µM
same,IC50,[30]; 8305c,61.6 µM
same,IC50,[31]; a549,18.8 µM
same,IC50,[32]; tyk-nu,15.8 µM
same,IC50,[33]; umc-11,903 µM
same,IC50,[34]; vmrc-rcz,298 µM
same,IC50,[35]; wm-115,33.4 µM
same,IC50,[36]; capan-1,24.3 µM
same,IC50,[37]; chl-1,99.2 µM
same,IC50,[38]; colo-679,765 µM
